Source: PubChem BioAssay AID2060623 (Molecular Pharmacology Branch, DTP, NCI, 2025)

System: 227483-062-R1-J1-PDC complex spheroids with HUVEC/MSC, viability
Test: Anticancer human tumor 227483-062-R1-J1-PDC patient-derived pancreatic carcinoma cell line growth inhibition [CLK]
Conditions: for IC50: curve of first compound; for viability, T/C: stronger effect = lower value
Text: A high-throughput screen of multi-cell type tumor spheroids was designed to identify active combinations of […] and targeted small molecules. Complex spheroids include a stromal component modeled by human endothelial cells (HUVEC) and fibroblasts modeled by human mesenchymal stem cells (MSCs). The concentration ranges selected for each drug and investigational agent were based upon clinically achievable concentrations if the clinical Cmax of the agent was known.
Compounds. The drugs and investigational agents: cirtuvivint (SM08502; NSC835563), CC-671 (NSC850746), vemurafenib (NSC761431), tapotoclax (NSC804041), sotorasib (NSC818433), adagrasib (NSC831453), MRTX-1133 (NSC836407), BAY2416964 (NSC825713), copanlisib (NSC816437), inavolisib (NSC800729), abemaciclib (NSC768073), osimertinib (NSC779217), entinostat (NSC756642), eltanexor (KPT-8602, NSC794443), venetoclax (NSC766270), ceralasertib (NSC777638), bortezomib (NSC756655), olaparib (NSC753686), talazoparib (NSC767125), alisertib (NSC759677), peposertib (NSC802822), gemcitabine (NSC613327), 5-fluorouracil (NSC19893), SN-38 (NSC673596), oxaliplatin (NSC266046), paclitaxel (NSC125973), and doxorubicin (NSC123127), were obtained from the National Cancer Institute (NCI) Developmental Therapeutics Program Chemical Repository. The FDA-approved anticancer drug set is available from the Developmental Therapeutics Program at https://dtp.cancer.gov/organization/dscb/obtaining/available plates.htm. […] The stock solutions were prepared in dimethyl sulfoxide (DMSO, Sigma-Aldrich, St. Louis, MO, cat. D2650), except for the platinum complexes which were prepared in saline (Quality Biological, Gaithersburg, MD, cat. 114-055-101), at 800-fold the tested concentration and stored at -70 degrees C prior to their use. All drugs and investigational agents were tested over a range starting from a high concentration at or near the clinical Cmax and decreasing in half-log increments. If the clinical Cmax for an agent had not been determined, the highest concentration tested was 10 microM.
Cell Culture. All cells were maintained in an incubator at 37 degrees C and 5% CO2 with 95% humidity. The PDC lines were cultured according to standard operating procedures established by the NCI PDMR. Briefly, all PDCs were thawed and cultured in Matrigel-coated flasks prepared with a working solution of 1X Ham's F-12 nutrient mix, without supplementation (Invitrogen, Waltham, MA, cat. 11765054), 100 U/mL penicillin-streptomycin (Invitrogen, cat. 15140122), and 2.5% Matrigel (Corning Inc., Corning, NY, cat. 354248) for the first three passages. The 947758-054-R-J2-PDC line was cultured in 6B/Colon 1A media, which includes advanced DMEM/F-12 (Thermo Fisher Scientific, cat. 12634028), 10 mM HEPES (Thermo Fisher Scientific, cat. 15630080), 1X GlutaMAX supplement (Thermo Fisher Scientific, cat. 35050061), 0.1 mg/mL primocin (InvivoGen, cat. ant-pm-2), 10% defined fetal bovine serum, heat inactivated (HyClone Laboratories Inc., cat. SH30070.03HI), 1.25 mM N-Acetyl-L-cysteine (Sigma-Aldrich, cat. A9165), 10 mM nicotinamide (Sigma-Aldrich, cat. N0636), 1X B-27 supplement (Thermo Fisher Scientific, cat. 17504044), 1X N-2 supplement (Thermo Fisher Scientific, cat. 17502048), and 10 microM Y-27632 dihydrochloride (Tocris Bioscience, cat. 1254). The 876862-298-R-J1-PDC was cultured in 6E media, which includes all 6B/Colon 1A media components plus 50% L-WRN conditioned media (ATCC, cat. CRL-3276), 50 ng/mL recombinant human EGF recombinant protein (hEGF; Thermo Fisher Scientific, cat. PHG0311), 10 ng/mL recombinant human fibroblast growth factor 10 (hGFG-10; PeproTech, cat. 100-26), 1 ng/mL recombinant human fibroblast growth factor 2 (hFGF-2; PeproTech, cat. 100-18B), and 1 µM prostaglandin E2 (PGE2; Tocris, cat. 2296). The 227483-062-R1-J1-PDC line was cultured in Panc media, containing all 6E components except hFGF-2, with the addition of 500 nM SB-431542 (Selleckchem, cat. S1067) and 10 nM gastrin (Tocris, cat. 3006). […]

[1] = second compound 0.0316 µM, first compound 0.0316 µM
[2] = second compound 0.0316 µM, first compound 0.1 µM
[3] = second compound 0.0316 µM, first compound 0.316 µM
[4] = second compound 0.0316 µM, first compound 1 µM
[5] = second compound 0.0316 µM, first compound 3.16 µM
[6] = second compound 0.0316 µM, first compound 10 µM
[7] = second compound 0.1 µM, first compound 0.0316 µM
[8] = second compound 0.1 µM, first compound 0.1 µM
[9] = second compound 0.1 µM, first compound 0.316 µM
[10] = second compound 0.1 µM, first compound 1 µM
[11] = second compound 0.1 µM, first compound 3.16 µM
[12] = second compound 0.1 µM, first compound 10 µM
[13] = second compound 0.316 µM, first compound 0.0316 µM
[14] = second compound 0.316 µM, first compound 0.1 µM
[15] = second compound 0.316 µM, first compound 0.316 µM
[16] = second compound 0.316 µM, first compound 1 µM
[17] = second compound 0.316 µM, first compound 3.16 µM
[18] = second compound 0.316 µM, first compound 10 µM
[19] = second compound 1 µM, first compound 0.0316 µM
[20] = second compound 1 µM, first compound 0.1 µM
[21] = second compound 1 µM, first compound 0.316 µM
[22] = second compound 1 µM, first compound 1 µM
[23] = second compound 1 µM, first compound 3.16 µM
[24] = second compound 1 µM, first compound 10 µM
[25] = second compound 3.16 µM, first compound 0.0316 µM
[26] = second compound 3.16 µM, first compound 0.1 µM
[27] = second compound 3.16 µM, first compound 0.316 µM
[28] = second compound 3.16 µM, first compound 1 µM
[29] = second compound 3.16 µM, first compound 3.16 µM
[30] = second compound 3.16 µM, first compound 10 µM
[31] = second compound 10 µM, first compound 0.0316 µM
[32] = second compound 10 µM, first compound 0.1 µM
[33] = second compound 10 µM, first compound 0.316 µM
[34] = second compound 10 µM, first compound 1 µM
[35] = second compound 10 µM, first compound 3.16 µM
[36] = second compound 10 µM, first compound 10 µM
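Further: spheroids exposed to compounds for seven days before readout.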
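Wherever viability, T/C is given: percent of DMSO vehicle control luminescence as 100% viability.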

C=CC(=O)N1CCN(c2nc(=O)n(-c3c(C)ccnc3C(C)C)c3nc(-c4c(O)cccc4F)c(F)cc23)C(C)C1 (stereo unspecified) + CN1CCN(c2cc(C(=O)Nc3cc4cc(-c5cnn(C)c5)ccc4cn3)ccn2)CC1
IC50 (second compound 0.0316 µM): > 10000 nM
IC50 (second compound 0.1 µM): > 10000 nM
IC50 (second compound 0.316 µM): < 31.6 nM
IC50 (second compound 1 µM): < 31.6 nM
IC50 (second compound 3.16 µM): < 31.6 nM
IC50 (second compound 10 µM): < 31.6 nM
viability, T/C [1]: 90.4%
viability, T/C [2]: 97.5%
viability, T/C [3]: 94.7%
viability, T/C [4]: 104%
viability, T/C [5]: 104%
viability, T/C [6]: 85.5%
viability, T/C [7]: 63.2%
viability, T/C [8]: 68.1%
viability, T/C [9]: 63.1%
viability, T/C [10]: 76.8%
viability, T/C [11]: 66.4%
viability, T/C [12]: 52.7%
viability, T/C [13]: 6.84%
viability, T/C [14]: 6.59%
viability, T/C [15]: 5.21%
viability, T/C [16]: 7.81%
viability, T/C [17]: 5.13%
viability, T/C [18]: 3.55%
viability, T/C [19]: 3.36%
viability, T/C [20]: 2.83%
viability, T/C [21]: 2.54%
viability, T/C [22]: 3.57%
viability, T/C [23]: 6.05%
viability, T/C [24]: 3.88%
viability, T/C [25]: 3.58%
viability, T/C [26]: 3.65%
viability, T/C [27]: 5.09%
viability, T/C [28]: 5.88%
viability, T/C [29]: 6.54%
viability, T/C [30]: 6.07%
viability, T/C [31]: 3.12%
viability, T/C [32]: 2.35%
viability, T/C [33]: 4.11%
viability, T/C [34]: 3.93%
viability, T/C [35]: 6.11%
viability, T/C [36]: 3.94%

CC(CO)NC(=O)c1cc(-c2ccc(Cl)cc2)nn(-c2cnn(C)c2)c1=O (stereo unspecified) + CNC(=O)c1ccc(Nc2nc(OC3CCCC3)c3c(-c4ccc5nc(C)oc5c4)c[nH]c3n2)c(OC)c1
IC50 (second compound 0.0316 µM): > 10000 nM
IC50 (second compound 0.1 µM): > 10000 nM
IC50 (second compound 0.316 µM): > 10000 nM
IC50 (second compound 1 µM): > 10000 nM
IC50 (second compound 3.16 µM): < 31.6 nM
IC50 (second compound 10 µM): < 31.6 nM
viability, T/C [1]: 100%
viability, T/C [2]: 80.3%
viability, T/C [3]: 103%
viability, T/C [4]: 99.4%
viability, T/C [5]: 86.6%
viability, T/C [6]: 84.7%
viability, T/C [7]: 109%
viability, T/C [8]: 102%
viability, T/C [9]: 96.1%
viability, T/C [10]: 91.4%
viability, T/C [11]: 78.3%
viability, T/C [12]: 82.6%
viability, T/C [13]: 80.2%
viability, T/C [14]: 90.7%
viability, T/C [15]: 85.5%
viability, T/C [16]: 77.5%
viability, T/C [17]: 83.7%
viability, T/C [18]: 70.8%
viability, T/C [19]: 62.6%
viability, T/C [20]: 68.2%
viability, T/C [21]: 61.4%
viability, T/C [22]: 54.1%
viability, T/C [23]: 64.9%
viability, T/C [24]: 56.9%
viability, T/C [25]: 45.5%
viability, T/C [26]: 50.3%
viability, T/C [27]: 46%
viability, T/C [28]: 45.5%
viability, T/C [29]: 49%
viability, T/C [30]: 38.3%
viability, T/C [31]: 36.5%
viability, T/C [32]: 41.8%
viability, T/C [33]: 51.3%
viability, T/C [34]: 37.3%
viability, T/C [35]: 30.6%
viability, T/C [36]: 36%

CCN1CCN(Cc2ccc(Nc3ncc(F)c(-c4cc(F)c5nc(C)n(C(C)C)c5c4)n3)nc2)CC1 + CN1CCN(c2cc(C(=O)Nc3cc4cc(-c5cnn(C)c5)ccc4cn3)ccn2)CC1
IC50 (second compound 0.0316 µM): > 1000 nM
IC50 (second compound 0.1 µM): > 1000 nM
IC50 (second compound 0.316 µM): < 3.16 nM
IC50 (second compound 1 µM): < 3.16 nM
IC50 (second compound 3.16 µM): < 3.16 nM
IC50 (second compound 10 µM): < 3.16 nM
viability, T/C (second compound 0.0316 µM, first compound 0.00316 µM): 97.5%
viability, T/C (second compound 0.0316 µM, first compound 0.01 µM): 93.4%
viability, T/C [1]: 101%
viability, T/C [2]: 93.4%
viability, T/C [3]: 87.6%
viability, T/C [4]: 72.4%
viability, T/C (second compound 0.1 µM, first compound 0.00316 µM): 65.8%
viability, T/C (second compound 0.1 µM, first compound 0.01 µM): 64.7%
viability, T/C [7]: 64.5%
viability, T/C [8]: 72.9%
viability, T/C [9]: 72.6%
viability, T/C [10]: 52%
viability, T/C (second compound 0.316 µM, first compound 0.00316 µM): 6.05%
viability, T/C (second compound 0.316 µM, first compound 0.01 µM): 8.49%
viability, T/C [13]: 8.54%
viability, T/C [14]: 9.66%
viability, T/C [15]: 13%
viability, T/C [16]: 6.42%
viability, T/C (second compound 1 µM, first compound 0.00316 µM): 1.57%
viability, T/C (second compound 1 µM, first compound 0.01 µM): 2.07%
viability, T/C [19]: 2.83%
viability, T/C [20]: 2.75%
viability, T/C [21]: 4.4%
viability, T/C [22]: 5.61%
viability, T/C (second compound 3.16 µM, first compound 0.00316 µM): 3.72%
viability, T/C (second compound 3.16 µM, first compound 0.01 µM): 6.23%
viability, T/C [25]: 5.4%
viability, T/C [26]: 5.18%
viability, T/C [27]: 4.88%
viability, T/C [28]: 8.09%
viability, T/C (second compound 10 µM, first compound 0.00316 µM): 3.9%
viability, T/C (second compound 10 µM, first compound 0.01 µM): 2.79%
viability, T/C [31]: 4.22%
viability, T/C [32]: 4.63%
viability, T/C [33]: 2.76%
viability, T/C [34]: 2.39%
